# According to patent US11628164B2, “Composition containing salsolinol for treating liver cancer” (SUNGSHIN WOMEN'S UNIVERSITY R&DB FOUNDATION, priority 2020, dated 2023):
# Columns and labels:
# [1] = tested on: SK-Hep1; experiment: MTT cell viability, male-derived liver cancer cell line; type: cell-based, human; conditions: SK-Hep1, 5-100 μM salsolinol
# Description: SK-Hep1 and SNU387, which are human-derived hepatoma cell lines, are distributed from Korea Cell Line Bank. […] The SK-Hep1 and the SNU387 are cultured in a medium including a minimum essential medium (Dulbecco Modified Eagle Medium, DMEM) (Gibco BRL grand Island, N.Y., USA) and in a medium containing 10% FBS (HyClone Lab, Inc, Logan, Utah, USA), 100 U/ml penicillin. (penicillin) and 100 μg/ml streptomycin (Gibco, Grand Island, N.Y., USA) at 37° C. in an atmosphere of 5% CO2. The cultured liver cancer cell lines (SK-HEP1 and SNU387) are dispensed into each well of a 48-well plate so as to have a concentration of 5×10^4 cells. After culturing for 24 hours, the sample is treated with the salsolinol for 24 hours, 48 hours, and 72 hours so as to have a concentration of 5 μM, 15 μM, 25 μM, 50 μM, or 100 μM. After that, 250 μl of 0.5 mg/ml MTT solution (Sigma, St Louis, Mo., US) is added to each well and reacted at 37° C. for 1 hour. After removing the solution, MTT-formazione is lysed and washed with 250 μl of DMSO (Dimethylsulfoxide, Duksan, Gyeonggi, Korea), and then, the absorbance at 540 nm is measured by using a SpectraMax 190 microplate plate reader (Molecular Devices, LCC. San Jose, Calif.). […]
# [2] = tested on: Ki-67, 8-OHdG in liver tissue; experiment: Immunofluorescence staining of liver tissue (Ki-67, 8-OHdG); type: in vivo, C57BL/6 mouse
# Description: (§1) The salsolinol (200 mg/kg) is administered for 6 months through intraperitoneal injection three times per week from the time when the DEN-induced liver cancer mouse model (male) became 7 weeks of age. After the mouse is sacrificed, the experiment is performed.
# In the paraffin section slide requested to be manufactured by NORTHUS Co., Ltd., paraffin is removed by using xylene (Duksan, Gyeonggi, Korea). And, after a hydration process with low concentration ethanol (100, 90, 80, and 70% ethanol) at a high concentration, the slide is rinsed twice with running water. Since formaldehyde forms a cross-link between proteins to prevent a primary antibody from binding to the epitope of the antigen, the cross-link is removed by using an antigen retrieval reagent (sigma). After washing the slide thoroughly with running water, and dropping 2% triton for nuclear staining, the slide is left for 45 minutes. After washing the slide thoroughly with running water, blocking proceeds for 1 hour with a PBS solution containing 3% BSA to prevent non-specific binding. Then, after dropping a diluted PBS solution containing 3% BSA diluted with a primary antibody (8-OHdG, Ki-67) (1:500) on the slide, the slide is left at 4° C. for one day. After washing the slide with PBS and dropping a diluted secondary antibody (1:2000) on the slide, the slide is left at 4° C. for 1 hour. After washing the slide with PBS, staining with DAPI (1:200), and dropping 2-3 drops of mounting solution (sigma), the slide is covered with a slide cover. After about a day, the degree of fluorescence staining is checked by using a confocal microscope.
# Tumor-related genes Ki-67 and 8-OHdG expressed in the liver tissue of the DEN-induced liver cancer mouse model (male, DEN), the DEN-induced liver cancer mouse model (male, DEN+SAL) administered with the salsolinol, and the normal mouse (male, SAL) administered with the salsolinol are analyzed by using an immunofluorescence measurement method (refer to FIGS. 10 and 11).
# [3] = tested on: AKT, p-AKT, Annexin A2, PCNA in liver tissue; experiment: Western blotting of liver tissue, DEN-induced liver cancer mouse model; type: in vivo, C57BL/6 mouse; conditions: DEN+SAL liver tissue
# Description: 5×10^5 cells of Human-derived liver cancer cell lines SK-Hep1 and SNU387 are cultured in a 60 mm culture vessel, the cells are lysed, and proteins are separated through electrophoresis. And after that, western blotting analysis is performed by using a specific antibody. After treatment of the SK-Hep1 and the SNU387 with the salsolinol at different times and concentrations, the cells are washed with PBS, and the cells are scraped off with a scraper. The cells are lysed in a lysis buffer for 1 hour, and after that, centrifuge separation is performed at 13,000 rpm for 15 minutes at 4° C., and only the supernatant is extracted. 20 μg of protein contained in the supernatant is electrophoresed on SDS-polyacrylamide gel, and after that, transferred to a PVDF membrane for 2 hours. The sample reacts with antibodies pSTAT3(#9145), STAT3(#9132), PCNA(#2586), 15-PGDH(cayman No. 160615), p53(sc-126), p53(sc-99), pAKT(#9271), AKT(#9272), Annexin A2(#8235), and GAPDH(sc-32233). The protein is detected by using an enhanced chemiluminascence (ECL) detection solution.
# as §1
# The normal mouse, the DEN-induced liver cancer mouse model, and the DEN-induced liver cancer mouse model administered with the salsolinol are sacrificed, the livers are excised, the liver tissues are crushed, and the proteins are extracted. After separating the extracted protein through electrophoresis, the expression levels of tumor-related genes AKT, p-AKT, Annexin A2, and PCNA and the changes in the expression levels are analyzed by using a Western blotting method (refer to FIG. 9).
# [4] = normal mouse administered with salsolinol (SAL)
smiles,measurement,setting,value
"CC1NCCc2cc(O)c(O)cc21 (stereo not drawn) [salsolinol, 6,7-dihydroxy-1-methyl-1,2,3,4-tetrahydroisoquinoline]",cell viability (MTT),[1]; 48 and 72 hours,degree of decrease in cell viability according to the treatment concentration of salsolinol increases
same,cell viability (MTT),[1]; 24 hours,cell viability decreases as the concentration of salsolinol increases
same,Ki-67 expression,[2]; DEN+SAL liver,not confirmed
same,8-OHdG expression,[2]; DEN+SAL liver tissue,at a low level
same,8-OHdG expression,[2]; [4],at a low level
same,Ki-67 expression,[2]; [4],not confirmed
same,Annexin A2 expression level,[3],decreased
same,PCNA expression level,[3],decreased to the level of the normal mouse
same,degree of phosphorylation of AKT (p-AKT),[3],decreased to the level of the normal mouse
